Test results from patent US11535630B2, “Apelin receptor (APJ) agonists and uses thereof” (Research Triangle Institute, priority 2015, dated 2022).
Read-outs that look alike come from different tables or passages of the source.

Target: T1, apelin receptor (APJ) (Homo sapiens, UniProt P35414)
T1 sequence (P35414 1-380): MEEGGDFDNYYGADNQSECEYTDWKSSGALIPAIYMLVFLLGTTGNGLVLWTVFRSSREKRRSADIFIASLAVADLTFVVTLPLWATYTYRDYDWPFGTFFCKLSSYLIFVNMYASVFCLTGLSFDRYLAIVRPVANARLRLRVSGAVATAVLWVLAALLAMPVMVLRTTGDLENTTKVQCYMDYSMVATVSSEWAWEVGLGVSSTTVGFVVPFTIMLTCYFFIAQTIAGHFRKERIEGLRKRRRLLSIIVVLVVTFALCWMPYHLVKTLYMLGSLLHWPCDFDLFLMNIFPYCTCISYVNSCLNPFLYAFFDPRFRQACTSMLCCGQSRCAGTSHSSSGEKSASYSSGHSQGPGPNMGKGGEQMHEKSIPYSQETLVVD
Assay: In vitro apelin agonist activity (methods of Giddings et al., Apelin-13 as positive control)
Type: cell-based
Settings: in vitro apelin agonist activity, methods of Giddings et al., Apelin-13 as positive control
Excerpt: Characterization of the Apelin Agonist Activity of the Compounds
1:39-47, the contents of which are hereby incorporated by reference in its entirety. Using the methods described in Giddings et al. and Apelin-13 as a positive control.

EC50 (read-out: EC50 (nM) Ave) [nM] | SMILES | EC50 (EC50 (nM) Ave) [nM]
> 10000 | O=C(O)C[C@H](CN1CCCC(F)(F)C1)NC(=O)c1cc(-c2ccccc2C(F)(F)F)n(C2CCCC2)n1 [compound 519, (3R)-3-({1-cyclopentyl-5-[2-(trifluoromethyl)phenyl]-1H-pyrazol-3-yl]formamido)-4-(3,3-difluoropiperidin-1-yl)butanoic acid] | –
1170 | CN(C(=O)[C@@H](CC(=O)O)NC(=O)c1cc(-c2ccccc2C(F)(F)F)n(C2CCCC2)n1)C1CCCCC1 [compound 558, (3R)-3-[cyclohexyl(methyl)carbamoyl]-3-({1-cyclopentyl-5-[2-(trifluoromethyl)phenyl]-1H-pyrazol-3-yl}formamido)propanoic acid] | –
26 | Cc1cnn(CC[C@@H](CC(=O)NC2CCC2)NC(=O)c2cc(-c3ccccc3C(F)(F)F)n(C3CCCC3)n2)c1 [compound 501, (3S)-N-cyclobutyl-3-({1-cyclopentyl-5-[2-(trifluoromethyl)phenyl]-1H-pyrazol-3-yl}formamido)-5-(4-methyl-1H-pyrazol-1-yl)pentanamide] | –
100 | O=C(C[C@H](CCN1CC2CCC1CC2)NC(=O)c1cc(-c2ccccc2C(F)(F)F)n(C2CCCC2)n1)NC1CCC1 [compound 521] | –
158 | CC(C(=O)NC1CCC1)[C@H](CCN1CC2C(C1)C2(F)F)NC(=O)c1cc(-c2ccccc2C(F)(F)F)n(C2CCCC2)n1 (stereo partly drawn) [compound 636, (3S)-N-cyclobutyl-3-({1-cyclopentyl-5-[2-(trifluoromethyl)phenyl]-1H-pyrazol-3-yl}formamido)-5-{6,6-difluoro-3-azabicyclo[3.1.0]hexan-3-yl}-2-methylpentanamide] | –
528 | O=C(O)C[C@H](CCN1CC2(CCC2(F)F)C1)NC(=O)c1cc(-c2ccccc2C(F)(F)F)n(C2CCCC2)n1 [compound 591, (3S)-3-({1-cyclopentyl-5-[2-(trifluoromethyl)phenyl]-1H-pyrazol-3-yl]formamido)-5-{5,5-difluoro-2-azaspiro[3.3]heptan-2-yl}pentanoic acid] | –
14 | C[C@@H](c1nnn[nH]1)[C@H](CCN1CC2C(C1)C2(F)F)NC(=O)c1cc(-c2ccccc2C(F)(F)F)n(C2CCCC2)n1 (stereo partly drawn) [compound 638, 1-cyclopentyl-N-[(3S,4R)-1-{6,6-difluoro-3-azabicyclo[3.1.0]hexan-3-yl}-4-(1H-1,2,3,4-tetrazol-5-yl)pentan-3-yl]-5-[2-(trifluoromethyl)phenyl]-1H-pyrazole-3-carboxamide] | –
126 | O=C(O)C[C@H](CCN1CCCC(F)(F)C1)NC(=O)c1cc(-c2ccc(F)cc2C(F)(F)F)n(C2CCCC2)n1 [compound 554] | –
16 | CC(F)(F)c1ccccc1-c1cc(C(=O)N[C@@H](CCN2CCC(F)(F)C2)CC(=O)O)nn1C1CCCC1 [compound 537, (3S)-3-({1-cyclopentyl-5-[2-(1,1-difluoroethyl)phenyl]-1H-pyrazol-3-yl}formamido)-5-(3,3-difluoropyrrolidin-1-yl)pentanoic acid] | –

Further lines, the compound ahead of its results:

SMILES | EC50 (read-out: EC50 (nM) Ave) [nM] | EC50 (EC50 (nM) Ave) [nM]
COc1cccc(OC)c1-c1cc(C(=O)N[C@@H](CCN2CCCCC2)Cc2nccs2)nn1C1CCCC1 [compound 448, 1-cyclopentyl-5-(2,6-dimethoxyphenyl)-N-[(2S)-4-(piperidin-1-yl)-1-(1,3-thiazol-2-yl)butan-2-yl]-1H-pyrazole-3-carboxamide] | 1340 | –
COc1cccc(OC)c1-c1cc(C(=O)N[C@@H](CCN2CCOCC2)CC(=O)OC(C)(C)C)nn1C1CCCC1 [compound 303, tert-butyl (3S)-3-{[1-cyclopentyl-5-(2,6-dimethoxyphenyl)-1H-pyrazol-3-yl]formamido}-5-(morpholin-4-yl)pentanoate] | > 10000 | –
O=C(C[C@H](CCN1CCCC(F)(F)C1)NC(=O)c1cc(-c2ccccc2C(F)(F)F)n(C2CCCC2)n1)NC1CCC1 [compound 425, (3S)-N-cyclobutyl-3-({1-cyclopentyl-5-[2-(trifluoromethyl)phenyl]-1H-pyrazol-3-yl}formamido)-5-(3,3-difluoropiperidin-1-yl)pentanamide] | 10.9 | –
O=C(C[C@H](CCN1CCCC(F)(F)C1)NC(=O)c1cc(-c2ccncc2Cl)n(C2CCCC2)n1)NC1CCC1 [compound 457, (3S)-3-{[5-(3-chloropyridin-4-yl)-1-cyclopentyl-1H-pyrazol-3-yl]formamidol}-N-cyclobutyl-5-(3,3-difluoropiperidin-1-yl)pentanamide] | 1320 | –
O=C(C[C@H](CCN1CCCCC1)NC(=O)c1cc(-c2c(F)cc(F)cc2F)n(C2CCCC2)n1)NC1CCC1 [compound 354, (3S)-N-cyclobutyl-3-{[1-cyclopentyl-5-(2,4,6-trifluorophenyl)-1H-pyrazol-3-yl]formamido}-5-(piperidin-1-yl)pentanamide] | > 10000 | –
COc1cccc(OC)c1-c1cc(C(=O)N[C@@H](/C=C/c2ccccn2)CC(=O)NC2CCC2)nn1C1CCCC1 [compound 435, (3R,4E)-N-cyclobutyl-3-{[1-cyclopentyl-5-(2,6-dimethoxyphenyl)-1H-pyrazol-3-yl]formamido}-5-(pyridin-2-yl)pent-4-enamide] | 9210 | –
O=C(C[C@H](CCN1CCCCC1)NC(=O)c1cc(-c2ccccc2Cl)n(C2CCCC2)n1)NC1CCC1 [compound 407, (3S)-3-{[5-(2-chlorophenyl)-1-cyclopentyl-1H-pyrazol-3-yl]formamido}-N-cyclobutyl-5-(piperidin-1-yl)pentanamide] | 162 | –
CCN(C(=O)c1cc(-c2cccs2)n(C2CCCC2)n1)[C@@H](CCN1CCCCC1)CC(=O)NC1CCC1 [compound 347] | > 10000 | –
COc1cccc(OC)c1-c1cc(C(=O)N[C@@H](CCN2CCCCC2)CC(N)=O)nn1C1CCCC1 [compound 352, (3S)-3-{[1-cyclopentyl-5-(2,6-dimethoxyphenyl)-1H-pyrazol-3-yl]formamido}-5-(piperidin-1-yl)pentanamide] | > 10000 | –
O=C(O)C[C@H](CCN1CCC(F)(F)CC1)NC(=O)c1cc(-c2ccccc2C(F)(F)F)n(C2CCCC2)n1 [compound 424, (3S)-3-({1-cyclopentyl-5-[2-(trifluoromethyl)phenyl]-1H-pyrazol-3-yl}formamido)-5-(4,4-difluoropiperidin-1-yl)pentanoic acid] | 110 | –
O=C(C[C@H](CCN1CCOCC1)NC(=O)c1cc(-c2ccccc2C(F)(F)F)n(C2CCCC2)n1)NC1CCC1 [compound 491, (3S)-N-cyclobutyl-3-({1-cyclopentyl-5-[2-(trifluoromethyl)phenyl]-1H-pyrazol-3-yl}formamido)-5-(morpholin-4-yl)pentanamide] | – | 68
COc1cccc(OC)c1-c1cc(C(=O)N[C@@H](CCN2CC3(CCC3)C2)CC(=O)NC2CCC2)nn1C1CCCC1 [compound 349] | 197 | –
COc1cccc(OC)c1-c1cc(C(=O)N[C@@H](CCc2ccccc2)C(=O)NCc2nccs2)nn1C1CCCC1 [compound 388, (2S)-2-{[1-cyclopentyl-5-(2,6-dimethoxyphenyl)-1H-pyrazol-3-yl]formamido}-4-phenyl-N-(1,3-thiazol-2-ylmethyl)butanamide] | 399 | –
COc1cccc(OC)c1-c1cc(C(=O)N[C@H](CC#N)CCc2ccccc2)nn1C1CCCC1 [compound 391, N-[(2S)-1-cyano-4-phenylbutan-2-yl]-1-cyclopentyl-5-(2,6-dimethoxyphenyl)-1H-pyrazole-3-carboxamide] | 6340 | –
COc1cccc(OC)c1-c1cc(C(=O)N[C@@H](CC2CC2)C(=O)NC2CCC2)nn1C1CCCC1 [compound 376, (2S)-N-cyclobutyl-2-{[1-cyclopentyl-5-(2,6-dimethoxyphenyl)-1H-pyrazol-3-yl]formamido}-3-cyclopropylpropanamide] | > 10000 | –
CCC(CC)n1nc(C(=O)N(CC)[C@@H](CCN2CCCCC2)CC(=O)NC2CCC2)cc1-c1c(OC)cccc1OC [compound 346, (3S)-N-cyclobutyl-3-{1-[5-(2,6-dimethoxyphenyl)-1-(pentan-3-yl)-1H-pyrazol-3-yl]-N-ethylformamido}-5-(piperidin-1-yl)pentanamide] | > 10000 | –
COc1cccc(OC)c1-c1cc(C(=O)N[C@@H](CCc2ccccc2)CC(=O)Nc2nnn[nH]2)nn1C1CCCC1 [compound 381, (3S)-3-{[1-cyclopentyl-5-(2,6-dimethoxyphenyl)-1H-pyrazol-3-yl]formamido}-5-phenyl-N-(1H-1,2,3,4-tetrazol-5-yl)pentanamide] | 647 | –
CN(C(=O)C[C@H](CCN1CCCC(F)(F)C1)NC(=O)c1cc(-c2ccccc2Cl)n(C2CCCC2)n1)c1nccs1 [compound 447, (3S)-3-{[5-(2-chlorophenyl)-1-cyclopentyl-1H-pyrazol-3-yl]formamido}-5-(3,3-difluoropiperidin-1-yl)-N-methyl-N-(1,3-thiazol-2-yl)pentanamide] | 84 | –
O=C(C[C@H](CCN1CCCCC1)NC(=O)c1cc(-c2cscn2)n(C2CCCC2)n1)NC1CCC1 [compound 378, (3S)-N-cyclobutyl-3-{[1-cyclopentyl-5-(1,3-thiazol-4-yl)-1H-pyrazol-3-yl]formamido}-5-(piperidin-1-yl)pentanamide] | 9390 | –
COc1cccc(OC)c1-c1cc(C(=O)N[C@@H](CCN2CCCCC2)CC(=O)N(C)c2nccs2)nn1C1CCCC1 [compound 351, (3S)-3-{[1-cyclopentyl-5-(2,6-dimethoxyphenyl)-1H-pyrazol-3-yl]formamido}-N-methyl-5-(piperidin-1-yl)-N-(1,3-thiazol-2-yl)pentanamide] | 73 | –
